Test results taken from ChEMBL document CHEMBL3588779, “Novel 3-(1H-indol-3-yl)-2-[3-(4-methoxyphenyl)ureido]propanamides as selective agonists of human formyl-peptide receptor 2” (Bioorg Med Chem, 2015).

What was measured:
[1] = target: T1, N-formyl peptide receptor 2 (Homo sapiens, UniProt P25090); experiment: Agonist activity at FPR2 in human PMN assessed as stimulation of Ca2+ influx measured every 5 secs for 240 secs by FLIPR assay in presence of probenecid; format: functional
T1 sequence (P25090 whole entry): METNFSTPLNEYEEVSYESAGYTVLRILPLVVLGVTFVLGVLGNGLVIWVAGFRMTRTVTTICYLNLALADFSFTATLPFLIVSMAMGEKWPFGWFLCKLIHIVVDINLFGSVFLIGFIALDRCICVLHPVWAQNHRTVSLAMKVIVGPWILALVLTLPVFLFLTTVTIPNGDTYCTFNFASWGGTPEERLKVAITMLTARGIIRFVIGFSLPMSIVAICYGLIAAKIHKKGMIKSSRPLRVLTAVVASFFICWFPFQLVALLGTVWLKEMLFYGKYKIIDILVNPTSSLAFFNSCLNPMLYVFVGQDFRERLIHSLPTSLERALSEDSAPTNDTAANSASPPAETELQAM

[2] = target: T2, N-formyl peptide receptor 2 (Homo sapiens) (UniProt P25090); experiment: Agonist activity at FPR2 in human PMN assessed as stimulation of Ca2+ influx measured every 5 secs for 240 secs by FLIPR assay relative to fMLF in presence of probenecid; format: functional
T2 sequence (whole entry): T1 sequence (P25090 whole entry)

[3] = target: T2, N-formyl peptide receptor 2 (Homo sapiens); experiment: Agonist activity at human FPR2 transfected in human HL60 cells assessed as stimulation of Ca2+ influx measured every 5 secs for 240 secs by FLIPR assay relative to WKYMVm; format: functional, cell-based; settings: HL-60
[4] = target: T3, Formyl peptide receptor-related sequence 1 (Mus musculus) (UniProt O08790); experiment: Agonist activity at FPR2 in BALB/c mouse assessed as stimulation of Ca2+ influx measured every 5 secs for 240 secs by FLIPR assay relative to fMLF; format: functional
T3 sequence (whole entry): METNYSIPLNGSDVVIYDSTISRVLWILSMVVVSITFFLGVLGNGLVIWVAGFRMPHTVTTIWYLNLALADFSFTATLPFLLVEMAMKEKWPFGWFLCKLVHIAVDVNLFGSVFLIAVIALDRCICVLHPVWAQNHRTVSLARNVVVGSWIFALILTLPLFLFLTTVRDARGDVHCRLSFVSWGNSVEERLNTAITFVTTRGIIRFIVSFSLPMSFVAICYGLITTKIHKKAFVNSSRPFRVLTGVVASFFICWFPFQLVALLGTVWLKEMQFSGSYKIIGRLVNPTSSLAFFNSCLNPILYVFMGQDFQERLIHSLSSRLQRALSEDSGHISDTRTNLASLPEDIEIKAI

[5] = target: T1, N-formyl peptide receptor 2; experiment: Agonist activity at FPR2 in human PMN assessed as stimulation of Ca2+ influx measured every 5 secs for 240 secs by FLIPR assay in absence of probenecid; format: functional
[6] = target: T1, N-formyl peptide receptor 2; experiment: Agonist activity at human FPR2 transfected in human HL60 cells assessed as stimulation of Ca2+ influx measured every 5 secs for 240 secs by FLIPR assay; format: functional, cell-based, HL-60
[7] = target: T4, fMet-Leu-Phe receptor (Homo sapiens, UniProt P21462); experiment: Agonist activity at human FPR1 transfected in human HL60 cells assessed as stimulation of Ca2+ influx measured every 5 secs for 240 secs by FLIPR assay; format: functional, cell-based, HL-60
T4 sequence (P21462 whole entry): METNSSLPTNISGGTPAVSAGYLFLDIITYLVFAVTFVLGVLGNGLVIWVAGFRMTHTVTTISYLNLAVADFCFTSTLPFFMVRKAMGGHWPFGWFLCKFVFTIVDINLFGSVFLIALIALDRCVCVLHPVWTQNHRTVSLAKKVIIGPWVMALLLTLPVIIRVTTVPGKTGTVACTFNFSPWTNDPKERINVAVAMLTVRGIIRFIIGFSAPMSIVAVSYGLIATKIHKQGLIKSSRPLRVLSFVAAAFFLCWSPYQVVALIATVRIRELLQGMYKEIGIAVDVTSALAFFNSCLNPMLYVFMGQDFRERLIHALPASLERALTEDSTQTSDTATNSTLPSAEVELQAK

[8] = test system: Liver microsome; settings: rat, microsomes, 1 µM
[9] = test system: Liver microsome; settings: rat, microsomes, 1 µM; remark: listed apart in the source
Description: Half life in rat liver microsomes at 1 uM preincubated for 10 mins followed by addition of NADPH regenerating system by LC-MS analysis

[10] = target: T2, N-formyl peptide receptor 2 (Homo sapiens); experiment: Agonist activity at FPR2 in human PMN assessed as stimulation of Ca2+ influx measured every 5 secs for 240 secs by FLIPR assay relative to fMLF in absence of probenecid; format: functional
[11] = target: T5, fMet-Leu-Phe receptor (Homo sapiens) (UniProt P21462); experiment: Agonist activity at human FPR1 transfected in human HL60 cells assessed as stimulation of Ca2+ influx measured every 5 secs for 240 secs by FLIPR assay relative to fMLF; format: functional, cell-based; settings: HL-60
T5 sequence (whole entry): T4 sequence (P21462 whole entry)

Compound | EC50 ([1]; read-out: EC50) [nM] | Efficacy [2] [%] | Efficacy [3] [%] | Efficacy [4] [%] | EC50 [5] | EC50 ([6]; read-out: EC50) [nM] | EC50 ([7]; hl-60) | CLH [8] [µL/min/mg] | t1/2 [9] [min] | Efficacy [10] [%] | EC50 [1] | EC50 ([6]; hl-60) | EC50 ([5]; read-out: EC50) [nM] | EC50 ([7]; read-out: EC50) [nM] | Efficacy [11] [%]
COc1ccc(NC(=O)N[C@@H](Cc2c[nH]c3ccccc23)C(=O)NCC2(c3ccc(F)cc3)CCCCC2)cc1 | 1100 | 55 | 40 | 25 | Not Active | 860 | Not Active |  |  |  |  |  |  |  | 
COc1ccc(NC(=O)N[C@H](Cc2c[nH]c3ccccc23)C(=O)NCC2(c3ccc(OC)cn3)CCCCC2)cc1 |  | 95 | 100 | 30 |  |  | Not Active | 1290.6 | 1.2 | 40 |  |  |  |  | 
COc1ccc(NC(=O)N[C@H](Cc2c[nH]c3ccccc23)C(=O)NCC2(c3ccnc(F)c3)CCCCC2)cc1 |  |  |  | 65 | Not Active |  | Not Active |  |  |  | Not Active | Not Active |  |  | 
COc1ccc(NC(=O)N[C@H](Cc2c[nH]c3ccccc23)C(=O)NCC2(c3cccnc3)CCCCC2)cc1 |  |  |  | 80 | Not Active |  | Not Active |  |  |  | Not Active | Not Active |  |  | 
COc1ccc(NC(=O)N[C@@H](Cc2c[nH]c3ccccc23)C(=O)NCC2(c3cccnc3)CCCCC2)cc1 | 270 | 105 | 75 | 75 |  | 730 | Not Active |  |  | 30 |  |  | 1800 |  | 
COc1ccc(NC(=O)N[C@H](Cc2c[nH]c3ccccc23)C(=O)NCC2(c3ccccc3)CCCCC2)cc1 | 970 | 40 | 65 | 35 | Not Active | 260 | Not Active |  |  |  |  |  |  |  | 
COc1ccc(NC(=O)N[C@H](Cc2c[nH]c3ccccc23)C(=O)NCC2(c3ccccn3)CCCCC2)cc1 | 490 | 115 | 90 | 55 |  | 310 | Not Active | 2476 | 0.6 | 40 |  |  | 620 |  | 
COc1ccc(NC(=O)N[C@@H](Cc2c[nH]c3ccccc23)C(=O)NCC2(c3ccccc3)CCCCC2)cc1 |  |  |  | 60 | Not Active |  | Not Active |  |  |  | Not Active | Not Active |  |  | 
COc1ccc(C2(CNC(=O)[C@](C)(Cc3c[nH]c4ccccc34)NC(=O)Nc3ccc([N+](=O)[O-])cc3)CCCCC2)nc1 |  |  |  |  |  |  |  | 314.1 | 4.4 |  |  |  |  |  | 
COc1ccc(NC(=O)N[C@@H](Cc2c[nH]c3ccccc23)C(=O)NCC2(c3ccccn3)CCCCC2)cc1 | 450 | 120 | 135 | 80 |  | 430 |  | 2173.4 |  | 85 |  |  | 1800 | 950 | 115
O=C(O)Cc1ccccc1Nc1c(Cl)cccc1Cl [DICLOFENAC] |  |  |  |  |  |  |  | 159.8 | 8.7 |  |  |  |  |  | 
COc1ccc(NC(=O)N[C@@H](Cc2c[nH]c3ccccc23)C(=O)NCC2(c3ccc(OC)cn3)CCCCC2)cc1 |  | 105 | 120 | 110 |  |  |  | 1162.4 | 1.1 |  |  |  |  | 430 | 130
COc1ccc(NC(=O)N[C@H](Cc2c[nH]c3ccccc23)C(=O)NCC2(c3ccc(F)cc3)CCCCC2)cc1 |  |  |  | 25 | Not Active |  | Not Active |  |  |  | Not Active | Not Active |  |  | 
COc1ccc(NC(=O)N[C@@H](Cc2c[nH]c3ccccc23)C(=O)NCC2(c3ccnc(F)c3)CCCCC2)cc1 | 660 | 130 | 115 | 50 |  | 1600 | Not Active |  |  | 55 |  |  | 12600 |  | 
